From PubChem BioAssay (NCI)
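48-hour exposure; five concentrations; linearly interpolated endpoints. The concentration for full growth arrest is given as TGI.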

Tests used:
Experiment in all cases: NCI tumour cell line growth inhibition, 48 h
[1] = system: ACHN renal
[2] = system: EKVX NSCLC
[3] = system: HCT-116 colon
[4] = system: MALME-3M melanoma
[5] = system: MCF7 breast
[6] = system: MDA-MB-231 breast
[7] = system: NCI-H226 lung
[8] = system: NCI-H460 lung
[9] = system: NCI-H522 lung
[10] = system: OVCAR-4 ovarian
[11] = system: OVCAR-8 ovarian
[12] = system: RPMI-8226 leukemia
[13] = system: SF-295 CNS
[14] = system: SK-MEL-28 melanoma
[15] = system: SR leukemia
[16] = system: SW-620 colon
[17] = system: UACC-257 melanoma
[18] = system: CCRF-CEM leukemia
[19] = system: M14 melanoma

| Compound | TGI [1] [µM] | TGI [2] [µM] | TGI [3] [µM] | TGI [4] [µM] | TGI [5] [µM] | TGI [6] [µM] | TGI [7] [µM] | TGI [8] [µM] | TGI [9] [µM] | TGI [10] [µM] | TGI [11] [µM] | TGI [12] [µM] | TGI [13] [µM] | TGI [14] [µM] | TGI [15] [µM] | TGI [16] [µM] | TGI [17] [µM] | TGI [18] [µM] | TGI [19] [µM] |
| --- | --- | --- | --- | --- | --- | --- | --- | --- | --- | --- | --- | --- | --- | --- | --- | --- | --- | --- | --- |
| CC(=O)OCC1OC(SC2=N/C(=C\c3cc4c(=O)c5ccccc5sc4s3)C(=O)N2c2ccccc2)C(OC(C)=O)C(OC(C)=O)C1OC(C)=O (centres undefined) | > 100 | > 100 | > 100 | > 100 | > 100 | > 100 | > 100 | > 100 | > 100 | > 100 | > 100 | > 100 | > 100 | > 100 | > 100 | > 100 | > 100 | – | – |
| COc1cc(C=C2C(C)=NN(c3cccc(Cl)c3)C23SCC(=O)N3c2nc3ccccc3s2)ccc1O (centres undefined) | 77.5 | > 100 | 65.3 | 47.6 | > 100 | 54.6 | > 80.7 | > 100 | 41.5 | > 100 | 50.5 | 30.7 | > 100 | > 100 | 29.2 | 96.9 | > 100 | 15.8 | > 100 |
| N=c1oc2cc(O)ccc2cc1C(=O)NCc1ccccc1 | > 100 | > 100 | 71.3 | 58.7 | > 100 | 65.5 | > 100 | > 100 | 39.1 | > 100 | 68.1 | 39.9 | > 100 | > 100 | 67 | 81.6 | > 100 | 45 | > 100 |
| CCC1NC(=O)C1NC(=O)OC (centres undefined) | > 100 | > 100 | > 100 | > 100 | > 100 | > 100 | > 100 | > 100 | > 100 | > 100 | > 100 | > 100 | > 100 | > 100 | > 100 | > 100 | > 100 | > 100 | > 100 |
| CCOC(=O)C1=[N+]([O-])OC2=C(O)CCCC21 (centres undefined) | > 100 | > 100 | > 100 | > 100 | > 100 | > 100 | > 100 | > 100 | > 100 | > 100 | > 100 | > 100 | > 100 | > 100 | > 100 | > 100 | > 100 | > 100 | > 100 |
| COc1ccc(/C=C2\NC(=S)N(CN3CCCCC3)C2=O)cc1 | > 100 | > 100 | > 100 | > 100 | 61.1 | > 100 | > 100 | – | > 100 | 78.8 | 50 | > 100 | > 100 | > 100 | > 100 | > 100 | – | > 100 | > 100 |
| NC(=O)NNc1nc2ccccc2c(=O)n1NC(=O)C(=O)Nc1ccc(Cl)cc1Cl | > 100 | > 100 | > 100 | > 100 | > 100 | > 100 | > 100 | > 100 | > 100 | > 100 | > 100 | > 100 | > 100 | > 100 | > 100 | > 100 | > 100 | > 100 | > 100 |
| CC(=O)CCCCC(=O)Nc1ccc(CC(NC(=O)OC(C)(C)C)C(=O)NCC(=O)OCc2ccccc2)cc1 (centres undefined) | > 100 | > 100 | 37.8 | 40.4 | 49.5 | 48.3 | 94 | 43 | 57.9 | 27.6 | 39.7 | 39.5 | 35.6 | 35.4 | 56.9 | 33 | – | – | 55.2 |
| O=[N+]([O-])c1ccc(-c2csc3nc(-c4ccccc4)nn23)cc1 | > 100 | > 100 | > 100 | > 100 | > 100 | > 100 | > 100 | – | > 100 | > 100 | > 100 | > 100 | > 100 | > 100 | > 100 | > 100 | > 100 | > 100 | > 100 |
| O=C(/C=C/c1ccccc1)/C=N/N1C(=S)N(c2ccccc2)C(=Nc2ccccc2)C1=Nc1ccccc1 | > 100 | > 100 | > 100 | > 100 | > 100 | > 100 | > 100 | > 100 | 62.9 | – | > 100 | > 100 | > 100 | > 100 | > 100 | > 100 | > 100 | – | > 100 |
| CC#CC#C/C=C1/O[C@]2(CCC(OC(C)=O)CO2)[C@@H]2O[C@H]12 (some centres undefined) | 60.8 | 77.5 | 40.6 | 35.6 | > 100 | 44.2 | 47.4 | 41.8 | 35.6 | > 100 | > 100 | 75.2 | > 100 | – | > 100 | 95.9 | 74.9 | 55.3 | 67.6 |
| CCOC(=O)c1ccc(N=C2C(=S)N(c3ccc(C(=O)OCC)cc3)C(=N)N2/N=C/c2ccccc2)cc1 | – | > 100 | 30.5 | 49.1 | 28.5 | 32.6 | 31.4 | > 100 | 6.1 | – | > 100 | > 100 | 70.4 | – | > 100 | – | – | – | 24.9 |
| Cc1nc2cccc(F)c2c(=O)n1C1CCCCNC1=O (centres undefined) | > 10 | > 10 | > 10 | – | > 10 | > 10 | > 10 | > 10 | > 10 | > 10 | > 10 | > 10 | > 10 | > 10 | > 10 | > 10 | > 10 | > 10 | > 10 |
| O=C(Cc1ccccc1)NNc1nc(NNC(=O)c2ccncc2)nc(Nc2ccc([N+](=O)[O-])cc2)n1 | > 10 | > 10 | > 10 | > 10 | > 10 | > 10 | – | > 10 | > 10 | > 10 | > 10 | > 10 | > 10 | > 10 | > 10 | > 10 | > 10 | > 10 | > 10 |
| O=C1C(Cl)=C(OCCCCl)C(=O)c2c(O)ccc(O)c21 | 16.3 | 40.9 | 3.91 | 3.6 | 3.12 | 6 | 30.8 | 27.2 | – | 7.14 | 20.9 | 5.58 | 18.3 | 4.48 | 1.2 | 4.29 | 5.98 | 0.168 | 2.96 |
| C=CCOc1ccc(/C(N=Nc2ccc([N+](=O)[O-])cc2)=N/NC(=O)c2ccccc2)cc1OC | > 100 | > 100 | > 100 | > 100 | > 100 | > 100 | > 100 | > 100 | > 100 | > 100 | > 100 | – | > 100 | > 100 | > 100 | > 100 | > 100 | > 100 | > 100 |
| COC(O)C(=O)c1c2c(cc3c1CC1(Cc4cc5c(cc4C1)CCC5)C3)CCC2 (centres undefined) | 29.3 | 41.1 | 20.9 | 31.2 | 33.9 | 29.2 | – | 42.7 | 36.1 | 33.9 | 33.6 | 30 | 41.8 | 35.7 | 15.1 | 35.5 | 33.1 | 20.5 | 31 |
| CC[C@H]1C=CCC[C@@]2(C[C@@H]3CC[C@@H]4[C@H](C(=O)OCCCCCCCCCCCCCCCC(=O)O)[C@]5(CCC[C@@H](C)O5)NC(=[N+]34)N2)O1 | 1.89 | 10.5 | 2.16 | 0.423 | 4.95 | 9.09 | 3.69 | 1.12 | 0.365 | 6.47 | 8.03 | 0.582 | 2.09 | 5.3 | 0.357 | 6.37 | – | 0.0215 | 0.212 |
| O=C1c2c(ccc3c2CCCC3)CC12Cc1ccc3c(c1C2=O)CCCC3 | > 100 | > 100 | > 100 | > 100 | > 100 | > 100 | – | > 100 | > 100 | > 100 | > 100 | > 100 | > 100 | > 100 | > 100 | > 100 | > 100 | > 100 | > 100 |
| C/C(=N/NC(=S)Nc1ccc([N+](=O)[O-])cc1)c1cccc(/C(C)=N\NC(=S)Nc2ccc([N+](=O)[O-])cc2)n1 | 1.14 | 12.8 | 12.2 | 9.13 | 3.86 | 17.7 | 1.84 | 9.11 | 21.2 | 49.4 | – | 8.8 | 8.33 | > 100 | 2.33 | 16.1 | 13.1 | > 55.8 | 2.7 |
| CCN(CC)CCC(=O)c1ccc(Oc2ccc(Cl)cc2)cc1 | 25.8 | 42.2 | 32 | 34.8 | 55.9 | 29.2 | – | 29.2 | 38 | 36.1 | 44.9 | 16.3 | 32.4 | 32.6 | 48.7 | 44.4 | 28.6 | 58.1 | 28.3 |
| CSc1ncc2c(C#N)c3sc4ccccc4n3c(=O)c2n1 | > 100 | > 100 | > 100 | > 100 | > 100 | > 100 | > 100 | > 100 | – | > 100 | > 100 | > 100 | > 100 | > 100 | > 100 | > 100 | > 100 | > 100 | > 100 |
| S=c1sc2c(s1)SCCCCSCCCCSc1sc(=S)sc1SCCCCSCCCCS2 | > 100 | > 100 | > 100 | > 100 | > 100 | > 100 | > 100 | > 100 | > 100 | – | > 100 | > 100 | > 100 | > 100 | > 100 | > 100 | > 100 | > 100 | > 100 |
| CCOC(=O)N/N=C(/OCC)c1ccccc1 | > 100 | > 100 | > 100 | > 100 | > 100 | > 100 | > 100 | > 100 | > 100 | > 100 | > 100 | > 100 | > 100 | > 100 | > 100 | > 100 | > 100 | > 100 | – |
| CC(=O)N1C(=O)/C(=C\C(=O)c2ccc([N+](=O)[O-])cc2)c2ccccc21 | 29.6 | 51.6 | 37.8 | 45.9 | 69.7 | 84.5 | > 100 | 39.9 | 30.9 | 34.5 | > 100 | – | > 100 | – | 20.3 | – | 40.9 | 16.9 | > 100 |
